{"source": "patent US9579383B2", "about": "“Formulations for enhanced bioavailability of orally administered polar agents” (ALA WAI PHARMA, INC., priority 2007, dated 2017)", "key": {"Caco-2 cell monolayers [1]": {"test_system": "Caco-2 cell monolayers"}, "Caco-2 cell monolayers [2]": {"test_system": "Caco-2 cell monolayers", "assay": "Caco-2 cell permeability assay of peramivir with permeability enhancers", "conditions": "for Fold-Enhancement Over Control / ng peramivir transported/min: peramivir 15 μg/mL"}, "Caco-2 cells": {"test_system": "Caco-2 cells", "assay": "cytotoxicity of PPS at the concentrations used", "format": "cell-based", "conditions": "in the concentrations used (0.001% to 0.01%)"}, "[3]": {"conditions": "human, in vivo; cited from earlier work"}, "[4]": {"test_system": "avian influenza virus (H5N1)", "conditions": "cited from earlier work"}, "viral neuraminidase": {"test_system": "viral neuraminidase", "conditions": "depending on the influenza strain; based on concentrations required for 50% inhibition of neuraminidase activity in vitro; cited from earlier work"}, "influenza A and B": {"test_system": "influenza A and B", "conditions": "oral formulation, phase III clinical trial; cited from earlier work"}, "[5]": {"conditions": "enhancer concentration 0.05% in HBSS"}, "[6]": {"conditions": "enhancer concentration 0.10% in HBSS"}, "[7]": {"conditions": "enhancer concentration 0.20% in HBSS"}}, "note": "Where two headings read alike, the source gives them in different places."}
{"compound": "OCC(O)CO", "note": "[Glycerol, glycerol]", "values": [{"measurement": "peramivir permeability (in words)", "setting": "Caco-2 cell monolayers [1]", "result": "substantial increase in peramivir permeability"}, {"measurement": "peramivir permeability enhancement", "setting": "Caco-2 cell monolayers [1]; human", "result": "Less than 150%"}]}
{"compound": "CN1CCNCC1", "note": "[N-Methylpiperazine, N-methylpiperazine]", "values": [{"measurement": "peramivir permeability enhancement in Caco-2 cell assays (in words)", "setting": "Caco-2 cell monolayers [2]", "result": "negative"}]}
{"compound": "CCCCCCCCCCCCCCCC[N+](C)(C)CCCS(=O)(=O)[O-]", "note": "[PPS, 3-(N,N-dimethylpalmitylammonio)propane sulfonate]", "values": [{"measurement": "peramivir permeability (in words)", "setting": "Caco-2 cell monolayers [2]; PPS varying from 0.001% to 0.01% final concentration", "result": "substantially increased peramivir permeability"}, {"measurement": "cytotoxicity", "setting": "Caco-2 cells", "result": "not cytotoxic"}]}
{"compound": "CCCCCCCC/C=C\\CCCCCCCC(=O)OCCOCC(OCCO)C1OCC(OCCO)C1OCCO", "note": "(stereo not drawn) [Tween-80]", "values": [{"measurement": "peramivir permeability enhancement in Caco-2 cell assays (in words)", "setting": "Caco-2 cell monolayers [2]", "result": "negative"}]}
{"compound": "CCC(CC)[C@H](NC(C)=O)[C@@H]1[C@H](O)[C@@H](C(=O)O)C[C@H]1NC(=N)N", "note": "[peramivir, (1S,2S,3S,4R)-3-[(1S)-1-Acetamido-2-ethyl-butyl]-4-(diaminomethylideneamino)-2-hydroxy-cyclopentane-1-carboxylic acid]", "values": [{"measurement": "oral bioavailability", "setting": "[3]", "result": "very poor oral bioavailability"}, {"measurement": "sensitivity to peramivir", "setting": "[4]", "result": "sensitive"}, {"measurement": "potency as neuraminidase inhibitor relative to oseltamivir (Tamiflu®) and zanimivir", "setting": "viral neuraminidase", "result": "2 to 10", "unit": "times"}, {"measurement": "antiviral activity against influenza A and B", "setting": "influenza A and B", "result": "did not reach statistical significance"}]}
{"compound": "O=C([O-])c1ccccc1O.[Na+]", "note": "[sodium salicylate]", "values": [{"measurement": "peramivir permeability enhancement in Caco-2 cell assays (in words)", "setting": "Caco-2 cell monolayers [2]", "result": "negative"}]}
{"compound": "phosphatidylcholine", "values": [{"measurement": "peramivir permeability enhancement in Caco-2 cell assays (in words)", "setting": "Caco-2 cell monolayers [2]", "result": "some potential for peramivir permeability enhancement"}, {"measurement": "Fold-Enhancement Over Control", "setting": "Caco-2 cell monolayers [2]; [5]", "result": 2.11, "unit": "fold"}, {"measurement": "ng peramivir transported/min", "setting": "Caco-2 cell monolayers [2]; [5]", "result": 0.4, "unit": "ng/min"}, {"measurement": "Fold-Enhancement Over Control", "setting": "Caco-2 cell monolayers [2]; [6]", "result": 2.11, "unit": "fold"}, {"measurement": "ng peramivir transported/min", "setting": "Caco-2 cell monolayers [2]; [6]", "result": 0.4, "unit": "ng/min"}, {"measurement": "Fold-Enhancement Over Control", "setting": "Caco-2 cell monolayers [2]; [7]", "result": 7, "unit": "fold"}, {"measurement": "ng peramivir transported/min", "setting": "Caco-2 cell monolayers [2]; [7]", "result": 1.33, "unit": "ng/min"}]}
